“And” between values parts separate entries of the source, which are not always exact repeats. Equal values may be shown once.
Tests used:
[1] = tested on: L. donovani strain LV82; experiment: Murine VL model, parasite burdens in spleen, liver and bone marrow; type: in vivo, Leishmania donovani in BALB/c mice
Experimental: BALB/c mice were infected by intravenous injection (tail vein, no anesthetic) with 1–2 × 10^7 L. donovani strain LV82 amastigote parasites, obtained from the spleen of an infected hamster. Mice (n = 4/treatment) were treated with PBS pH 7.4 (controls) or APC12 (40 or 80 mg/kg) by intravenous injection (tail vein, no anesthetic, 0.2 mL) on days 7 and 8 post-infection or a single oral dose on day 7 post-infection. Milt was not given orally at a dose of 80 mg/kg because of its potential toxicity. On day 14, parasite burdens in the liver, spleen and bone marrow were determined. Results are from duplicate experiments, however, if a treatment had no significant effect then it […] in subsequent experiments.

[2] = two-component population PK model; listed as Milt; cited from earlier work
[3] = tested on: visceral leishmaniasis; settings: VL monotherapy, Nepal, 12 months post-treatment; cited from earlier work
[4] = 40 mg/kg IV, assessed day 14, Experiment 2
[5] = 40 mg/kg oral, day 7 post-infection, assessed day 14, Experiment 1
[6] = 80 mg/kg oral, assessed day 14, Experiment 2

SMILES | Mean Parasite Burden ± SD Bone Marrow [1, 4] | Mean Parasite Burden ± SD Liver [1, 4] | Mean Parasite Burden ± SD Spleen [1, 4] | mean percentage suppression ± SD in parasite burden, Bone Marrow [1, 4] | mean percentage suppression ± SD in parasite burden, Liver [1, 4] | mean percentage suppression ± SD in parasite burden, Spleen [1, 4] | Mean Parasite Burden ± SD Bone Marrow [1, 5] | Mean Parasite Burden ± SD Liver [1, 5] | Mean Parasite Burden ± SD Spleen [1, 5] | mean percentage suppression ± SD in parasite burden, Bone Marrow [1, 5] | mean percentage suppression ± SD in parasite burden, Liver [1, 5] | mean percentage suppression ± SD in parasite burden, Spleen [1, 5] | Mean Parasite Burden ± SD Bone Marrow [1, 6] | Mean Parasite Burden ± SD Liver [1, 6] | Mean Parasite Burden ± SD Spleen [1, 6] | mean percentage suppression ± SD in parasite burden, Bone Marrow [1, 6] | mean percentage suppression ± SD in parasite burden, Liver [1, 6] | mean percentage suppression ± SD in parasite burden, Spleen [1, 6] | threshold concentration between non-saturable and saturable component [2] | relapse rate [3]
CCCCCCCCCCCCOP(=O)([O-])OCC[N+](C)(C)C [APC12, dodecylphosphocholine] | 555 ± 254 | 434 ± 197 | 112 ± 30 | 8 ± 14% | 60 ± 11% and 60 ± 19% | 60 ± 19% and 60 ± 11% | 210 ± 90 | 880 ± 276 | 275 ± 96 | 54 ± 34% | 36 ± 34% | 8 ± 18% | 607 ± 115 | 939 ± 170 | 257 ± 73 | 2 ± 4% | 27 ± 16% | 13 ± 27% |  | 
CCCCCCCCCCCCCCCCOP(=O)([O-])OCC[N+](C)(C)C [APC16, hexadecylphosphocholine, reference compound] |  |  |  |  |  |  | 197 ± 157 | 433 ± 46 | 73 ± 68 | 30 ± 35% | 40 ± 25% | 53 ± 31% |  |  |  |  |  |  | 50 μM and 20.4 μg/mL | 20%
